From the RepoRT retention time repository (doi:10.1038/s41597-019-0305-1)

Assay: RP, Waters SunFire C18, 50 × 4.6 mm, 3.5 µm, 0.5 mL/min, estimated dead time 1.1 min; A: water + 0.1% formic acid; B: acetonitrile + 0.1% formic acid; gradient (min/%B) 0/5 7/100 8/100
Details: stereoisomer not certain

SMILES	LC retention time [min]
COC(=O)C(=C1OC(=O)C(c2ccc(OC)cc2)=C1O)c1ccccc1	6.71
COC1=CC(=O)c2c(O)c3c(c(O)c2C1=O)C(O)C(C)OC3=O (configuration not stated)	4.23
Cc1cc(O)c(C=O)c2c1C(=O)Oc1c(C)c(O)c3c(c1O2)C(O)OC3=O (configuration not stated)	5.3
COc1cc(C)c(C(=O)Oc2cc(C)c(C(=O)O)c(O)c2C)c(OC)c1C	7.09
COc1cc(O)c2c(c1)C(=O)c1cc(CO)cc(O)c1C2=O	5.36
Cc1cc(O)c(C=O)c(O)c1C(=O)OCc1cc(O)c(C=O)c(O)c1C(=O)O	7.26
CCCCCC(=O)Cc1cc(OC)cc(O)c1C(=O)Oc1cc(CCCCC)c(C(=O)O)c(OC)c1	7.1
COc1cc2oc(C)cc(=O)c2c(O)c1COC(=O)C=C(C)CC(=O)O	5.06
COC(=O)c1c(OC)cc2oc3c(C(=O)O)c(C)cc(OC)c3c2c1C	5.63
CCCCCc1c(Oc2cc(OC)cc3c2C(=O)OC3(O)CCCC)c(O)cc(O)c1C(=O)O (configuration not stated)	5.81
CCCCCc1cc(OC)c(O)c2c1C(=O)Oc1cc(O)c(C(=O)O)c(CCCCC)c1O2	7.36
COc1cc(C)c(C(=O)Oc2c(C)c(C(=O)O)c(O)c(C=O)c2O)c(O)c1C(=O)O	5.8
CCCCCC(=O)Cc1cc(O)cc2c1C(=O)Oc1cc(O)c(C(=O)O)c(CCCCC)c1O2	7.13
CC(=O)CCCCCCCCCCCCCC1OC(=O)C(C)=C1C(=O)O (configuration not stated)	6.9
COc1cc(O)cc(C)c1C(=O)Oc1cc(C)c(C(=O)Oc2cc(C)c(C(=O)O)c(O)c2)c(O)c1	6.17
COc1cc(C)c(C(=O)Oc2cc(C)c(C(=O)O)c(O)c2C)c(O)c1C	7.26
CCCc1cc(O)cc(O)c1C(=O)O	4.15
CC(C)CC(NC(=O)c1ccccc1)C(=O)OCC(Cc1ccccc1)NC(=O)c1ccccc1 (configuration not stated)	6.82
CCCc1cc(O)cc(O)c1	3.97

SMILES	LC retention time [min]
O=C1c2cc(O)cc(O)c2C(=O)c2c(O)cc(CO)cc21	4.9
CC(=O)OCC1OC(Oc2cc(O)c3c(=O)cc(C)oc3c2C)C(OC(C)=O)C(OC(C)=O)C1O (configuration not stated)	5.4
CCCCCC(=O)Cc1cc(OC)c(O)c2c1C(=O)Oc1cc(O)c(C(=O)O)c(CCCCC)c1O2	6.95
COC(=O)C(=C1OC(=O)C(c2ccccc2)=C1O)c1ccccc1	7.49
CCCCCCCCCCCCC(C(=O)O)C(C)C(=O)O (configuration not stated)	7.45
CCCCCC(=O)Cc1c(Oc2cc(OC)cc3cc(CCCCC)oc(=O)c23)c(O)cc(O)c1C(=O)O	7.09
COc1cc(O)c2c(c1)C(=O)c1cc(C(=O)O)cc(O)c1C2=O	5.72
COc1cc(O)c2c(c1)C(=O)c1cc(C=O)cc(O)c1C2=O	6
COc1cc(C)c2c(c1C=O)Oc1c(c(C)c(O)c3c1C(O)OC3=O)OC2=O (configuration not stated)	4.93
CC1CCC2(C(=O)O)CCC3(C)C(=CCC4C5(C)CCC(O)C(C)(C)C5CCC43C)C2C1C (configuration not stated)	7.89
Cc1cc(O)c(C)c(O)c1C(=O)O	3.99
COc1cc(C(=O)O)c2c(c1C)OC(=O)c1c(C)cc(O)c(C=O)c1O2	5.08
CCCCCc1cc(OC(=O)c2c(O)cc(OC)cc2CCC(=O)CC)cc(O)c1C(=O)O	7.31
Cc1cc(O)c(C=O)c(O)c1C(=O)O	7.07
Cc1cc(=O)c2c(O)cc(O)c(C)c2o1	4.65
CC1C(=O)OC(CCCCCCCCCC(C)(C)C)C1C(=O)O (configuration not stated)	8
CCCCCCCCCCC1CC(C(=O)O)C(C)C(=O)O1 (configuration not stated)	6.95
Cc1cc(=O)c2c(O)c3c(cc2o1)C(=O)C(=O)C=C3O	3.87
Cc1cc(O)cc2c1C(=O)Oc1cc3c(c(O)c1O2)C(=O)OC3	4.58

SMILES	LC retention time [min]
Cc1cc(O)c2c(c1)C(=O)c1cccc(O)c1C2=O	6.39
Cc1cc(OC(=O)c2c(C)cc(O)cc2O)cc(O)c1C(=O)OCC(O)C(O)CO (configuration not stated)	4.52
COc1cc(CCC(C(=O)[O-])[N+](C)(C)C)cc(OC)c1O (configuration not stated)	6.6
Cc1cc(O)c2c(oc3cc(O)c4c(c32)COC4=O)c1C(=O)O	3.95
CCCc1cc(OC)cc(O)c1C(=O)Oc1c(O)cc(CCC)c(C(=O)OC)c1O	7.11
CCCCCC(=O)Cc1cc(O)c(O)c2c1C(=O)Oc1cc(O)c(C(=O)O)c(CCCCC)c1O2	6.62
COC(=O)c1c(C)c(C)c(OC(=O)c2c(C)c(C)c(O)c(C=O)c2O)c(C)c1O	7.84
CC1OC2(C(C)C(O)C1C)C(C)C1OC(=O)C2(C)C(=O)C1C (configuration not stated)	5.25
COc1cc(C)c(C(=O)Oc2cc(C)c(C(=O)O)c(O)c2C)c(O)c1C(=O)O	5.79
CCCCCc1cc(OC(=O)c2c(O)cc(OC)cc2CC(=O)CCC)cc(O)c1C(=O)O	7.28
CCCC(=O)Cc1cc(OC(=O)c2c(O)cc(OC)cc2CC(=O)CCC)cc(O)c1C(=O)O	6.92
CC1=C(C(=O)O)C(CCCCCCCCCCCCC(C)CO)OC1=O (configuration not stated)	6.93
Cc1cc(O)c(C=O)c2c1C(=O)Oc1c(CO)c(O)c3c(c1O2)C(O)OC3=O (configuration not stated)	4.51
COC(=O)c1c(C)cc(O)c(C=O)c1O	5.48
COC12CC(=O)C(C(C)=O)=C(O)C1(C)c1c(O)c(C(C)=O)c(O)c(C)c1O2 (configuration not stated)	6.88
COC1=CC(=O)c2c(OC(C)=O)c3c(c(O)c2C1=O)CC(C)OC3=O (configuration not stated)	6.99
Cc1cc(O)c2c(oc3cc(O)c(C(=O)O)c(C)c32)c1C(=O)O	4.01
O=C1C(O)=C(c2ccccc2)C(=O)C(O)=C1c1ccccc1	5.71
COc1cc(C)c(C(=O)Oc2cc(C)c(C(=O)O)c(O)c2C)c(O)c1C=O	6.35
